Experimental findings from patent US20260285859A1, “BI-CYCLIC PYRIMIDINE COMPOUNDS, METHODS AND USES THEREOF” (Zeno Management, Inc., priority 2023, published 2026) are described below.

One assay addresses WEE1 (Homo sapiens, UniProt P30291). In words: LanthaScreen Eu Kinase Binding Assay, WEE1. A general note: In TR-FRET formats the signal depends on donor and acceptor labels being close together.
A further assay deals with T1, PKMYT1 (Homo sapiens, UniProt Q99640).
T1 sequence (Q99640 1-499): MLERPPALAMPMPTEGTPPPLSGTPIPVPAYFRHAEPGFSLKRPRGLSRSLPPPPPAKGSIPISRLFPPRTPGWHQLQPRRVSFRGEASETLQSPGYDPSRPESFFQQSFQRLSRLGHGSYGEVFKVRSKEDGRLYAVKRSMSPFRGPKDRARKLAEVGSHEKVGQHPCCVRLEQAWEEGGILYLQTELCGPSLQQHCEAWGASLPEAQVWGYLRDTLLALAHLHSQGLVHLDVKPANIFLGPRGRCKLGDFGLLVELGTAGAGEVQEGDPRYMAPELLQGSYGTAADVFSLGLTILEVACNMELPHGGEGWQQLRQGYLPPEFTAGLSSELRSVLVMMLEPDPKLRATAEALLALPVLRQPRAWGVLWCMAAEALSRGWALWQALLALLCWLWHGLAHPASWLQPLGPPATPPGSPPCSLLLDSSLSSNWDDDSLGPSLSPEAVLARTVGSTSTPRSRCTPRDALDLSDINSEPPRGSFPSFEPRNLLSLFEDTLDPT
The experiment in a line: LanthaScreen Eu Kinase Binding Assay, PKMYT1.

Chain of WEE1 (P30291 whole entry): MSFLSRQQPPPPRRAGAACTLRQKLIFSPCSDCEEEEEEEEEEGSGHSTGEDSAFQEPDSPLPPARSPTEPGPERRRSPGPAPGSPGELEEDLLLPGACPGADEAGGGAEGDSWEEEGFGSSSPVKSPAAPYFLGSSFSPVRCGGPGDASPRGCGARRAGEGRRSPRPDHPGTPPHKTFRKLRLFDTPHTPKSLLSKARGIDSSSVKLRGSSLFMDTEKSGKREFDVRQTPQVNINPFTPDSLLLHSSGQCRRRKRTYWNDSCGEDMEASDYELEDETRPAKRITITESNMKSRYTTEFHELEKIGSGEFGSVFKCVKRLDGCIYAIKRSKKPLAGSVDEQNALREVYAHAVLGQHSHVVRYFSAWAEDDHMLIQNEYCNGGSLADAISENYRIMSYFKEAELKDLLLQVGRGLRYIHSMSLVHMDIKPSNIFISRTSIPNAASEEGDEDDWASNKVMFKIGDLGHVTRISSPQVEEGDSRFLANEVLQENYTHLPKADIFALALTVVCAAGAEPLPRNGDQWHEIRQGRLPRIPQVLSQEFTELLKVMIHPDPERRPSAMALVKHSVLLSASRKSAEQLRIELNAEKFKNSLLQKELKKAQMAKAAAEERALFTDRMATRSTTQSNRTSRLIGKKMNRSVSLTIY
Protocol for PKMYT1: (§1) Binding of the tracer to the kinase is detected using a europium-labeled anti-GST antibody, which binds to the fused tag on the kinase protein. […] Inhibitor binding to the kinase competes with tracer binding, resulting in loss of FRET from the donor/acceptor pairs.
(§2) Kinase/Antibody Mixtures and Tracer are diluted to a 2× and 4× working concentration, respectively in this same buffer. […] 0% displacement (no known inhibitor) and 100% displacement (highest concentration of known inhibitor) controls were included on each plate for maximum and minimum Emission Ratio determination, respectively. Dasatinib was used for both PKMYT1 and WEE1 as the known inhibitor.
(§3) IC50 determination was performed using a non-linear regression, variable slope (four parameter), inhibitor v. response equation (Prism 9.0).
Protocol for WEE1: as §1, §2, §3

Consider `Cc1ccc(O)c(C)c1-c1nc(NS(C)(=O)=O)cc2c(N)ncnc12` (single isomer, unassigned) [Compound 16-B], for which the IC50 on WEE1 was above 1 µM; on PKMYT1, 0.01 to 0.1 µM.
Taken in the same sequence, the figures for `Cc1ccc(O)c(C)c1-c1nc(N2CC[C@H](O)C2)cc2c(N)ncnc12` (single isomer, unassigned) [Compound 4-B] were above 1 µM and 0.01 to 0.1 µM.
Taken in the same sequence, the figures for `CCN(c1cc2c(N)ncnc2c(-c2c(C)ccc(O)c2C)n1)C1CC1` (single isomer, unassigned) [Compound 36-B] were 0.1 to 1 µM and below 0.01 µM.
Taken in the same sequence, the figures for `Cc1ccc(O)c(C)c1-c1c(C)c(N(C)C)cc2c(N)ncnc12` (single isomer, unassigned) [Compound 51-B] were above 1 µM and 0.01 to 0.1 µM.
As to `Cc1ccc(O)c(C)c1-c1nc(N(C)C2(C(F)(F)F)CC2)cc2c(N)ncnc12` (single isomer, unassigned) [Compound 42-B], the figures for the concentration for half-maximal inhibition (IC50) on WEE1 and on PKMYT1 were 0.1 to 1 µM and below 0.01 µM, respectively.
Taken in the same sequence, the figures for `C=C(C)c1cc2c(N)ncnc2c(-c2c(C)ccc(O)c2C)n1` (single isomer, unassigned) [Compound 57-B] were above 1 µM and below 0.01 µM.
Take `Cc1ccc(O)c(C)c1-c1nc(N2CC(C)(CO)C2)cc2c(N)ncnc12` (single isomer, unassigned) [Compound 22-B]: the IC50 is above 1 µM on WEE1 and 0.01 to 0.1 µM at PKMYT1.
Taken in the same sequence, the figures for `Cc1ccc(O)c(C)c1-c1nc(N2CC[C@@H](F)C2)cc2c(N)ncnc12` (single isomer, unassigned) [Compound 58-B] were 0.1 to 1 µM and below 0.01 µM.
Taken in the same sequence, the figures for `Cc1ccc(O)c(C)c1-c1nc(C2CC2)cc2c(N)ncnc12` (single isomer, unassigned) [Compound 18-B] were above 1 µM and below 0.01 µM.
Taken in the same sequence, the figures for `Cc1ccc(O)c(C)c1-c1nc(-c2ccc(F)cc2F)cc2c(N)ncnc12` (single isomer, unassigned) [Compound 31-B] were 0.1 to 1 µM and below 0.01 µM.
For the compound `Cc1ccc(O)c(C)c1-c1nc(N2CC[C@@H](O)C2)cc2c(N)ncnc12` (single isomer, unassigned) [Compound 3-B], the results for the 50% inhibitory concentration (IC50) at WEE1 and at PKMYT1 were above 1 µM and below 0.01 µM, respectively.
Take `Cc1ccc(O)c(C)c1-c1nc(N(C)C)cc2c(N)ncnc12` (single isomer, unassigned) [Compound 10-B]: the figures for the half-maximal inhibitory concentration (IC50) at WEE1 and at PKMYT1 were above 1 µM and below 0.01 µM, respectively.
Regarding `[2H]C([2H])([2H])N(c1cc2c(N)ncnc2c(-c2c(C)ccc(O)c2C)n1)[C@H]1[C@@H]2COC[C@@H]21` [Compound 63-B, 3-((S)-6-(((1R,5S,6r)-3-oxabicyclo[3.1.0]hexan-6-yl)(methyl-d3)amino)-4-aminopyrido[3,4-d]pyrimidin-8-yl)-2,4-dimethylphenol], the IC50 at WEE1 is above 1 µM; on PKMYT1 it was below 0.01 µM.
As for `C#Cc1cc2c(N)ncnc2c(-c2c(C)ccc(O)c2C)n1` (single isomer, unassigned) [Compound 33-B], the IC50 on WEE1 is above 1 µM; on PKMYT1, below 0.01 µM.
Taken in the same sequence, the figures for `Cc1ccc(O)c(C)c1-c1nc(N2CCOCC2)cc2c(N)ncnc12` (single isomer, unassigned) [Compound 7-B] were above 1 µM and below 0.01 µM.
In the case of `CO[C@H]1C[C@H](N(C)c2cc3c(N)ncnc3c(-c3c(C)ccc(O)c3C)n2)C1` [Compound 62-D, 3-((S)-4-amino-6-(((1r,3S)-3-methoxycyclobutyl)(methyl)amino)pyrido[3,4-d]pyrimidin-8-yl)-2,4-dimethylphenol], the results for the IC50 on WEE1 and at PKMYT1 were above 1 µM and below 0.01 µM, respectively.
As to `Cc1cc2c(N)ncnc2c(-c2c(C)ccc(O)c2C)n1` [Compound 17-B, (S)-3-(4-Amino-6-methylpyrido[3,4-d]pyrimidin-8-yl)-2,4-dimethylphenol], the IC50 at WEE1 was above 1 µM; on PKMYT1 it was 0.01 to 0.1 µM.
Taken in the same sequence, the figures for `Cc1ccc(O)c(C)c1-c1nc(N2CCCC(F)(F)C2)cc2c(N)ncnc12` (single isomer, unassigned) [Compound 20-B] were 0.1 to 1 µM and below 0.01 µM.
Taken in the same sequence, the figures for `Cc1cc(-c2c(C)ccc(O)c2C)c2ncnc(N)c2c1` (single isomer, unassigned) [Compound 53-B] were above 1 µM and 0.01 to 0.1 µM.
Taken in the same sequence, the figures for `Cc1ccc(O)c(C)c1-c1nc(N2CC[C@](C)(F)C2)cc2c(N)ncnc12` (single isomer, unassigned) [Compound 55-B] were 0.1 to 1 µM and below 0.01 µM.
`Cc1ccc(O)c(C)c1-c1nc(C(F)F)cc2c(N)ncnc12` (single isomer, unassigned) [Compound 48-B]: the IC50 was above 1 µM at WEE1 and 0.01 to 0.1 µM on PKMYT1.
Taken in the same sequence, the figures for `Cc1ccc(O)c(C)c1-c1nc(CC(=O)N2CCOCC2)cc2c(N)ncnc12` (single isomer, unassigned) [Compound 35-B] were above 1 µM and 0.1 to 1 µM.
Take `Cc1ccc(O)c(C)c1-c1cc(C2=CCOCC2)nc2c(N)ncnc12` [Compound 71-B, (R)-3-(4-amino-6-(3,6-dihydro-2H-pyran-4-yl)pyrido[3,2-d]pyrimidin-8-yl)-2,4-dimethylphenol]: the values for the half-maximal inhibitory concentration (IC50) on WEE1 and at PKMYT1 were 0.1 to 1 µM and below 0.01 µM, respectively.
Taken in the same sequence, the figures for `Cc1ccc(O)c(C)c1-c1nc(N2CC[C@H](F)C2)cc2c(N)ncnc12` (single isomer, unassigned) [Compound 59-B] were 0.1 to 1 µM and below 0.01 µM.
For the compound `Cc1ccc(O)c(C)c1-c1nc(N2CCCC2)cc2c(N)ncnc12` (single isomer, unassigned) [Compound 6-B], the 50% inhibitory concentration (IC50) on WEE1 is above 1 µM; on PKMYT1, below 0.01 µM.
Consider `CC[C@H](C)N(C)c1cc2c(N)ncnc2c(-c2c(C)ccc(O)c2C)n1` (single isomer, unassigned) [Compound 45-B], for which the half-maximal inhibitory concentration (IC50) was above 1 µM at WEE1 and 0.01 to 0.1 µM on PKMYT1.
Taken in the same sequence, the figures for `COC[C@H]1CCN(c2cc3c(N)ncnc3c(-c3c(C)ccc(O)c3C)n2)C1` (single isomer, unassigned) [Compound 23-B] were above 1 µM and below 0.01 µM.
Consider `Cc1ccc(O)c(C)c1-c1nc(N(C)C2CCC2)cc2c(N)ncnc12` (single isomer, unassigned) [Compound 37-B], for which the 50% inhibitory concentration (IC50) on WEE1 was 0.1 to 1 µM; at PKMYT1, below 0.01 µM.
Taken in the same sequence, the figures for `Cc1ccc(O)c(C)c1-c1cc(N(C)C)nc2c(N)ncnc12` [Compound 73-B, (R)-3-(4-Amino-6-(dimethylamino)pyrido[3,2-d]pyrimidin-8-yl)-2,4-dimethylphenol] were above 1 µM and 0.01 to 0.1 µM.
Taken in the same sequence, the figures for `Cc1ccc(O)c(C)c1-c1nc(N2CCCC2=O)cc2c(N)ncnc12` (single isomer, unassigned) [Compound 43-B] were above 1 µM and below 0.01 µM.
Taken in the same sequence, the figures for `Cc1ccc(O)c(C)c1-c1nc(C(=O)N2CCCC2)cc2c(N)ncnc12` (single isomer, unassigned) [Compound 34-B] were above 1 µM and 0.1 to 1 µM.
In the case of `Cc1ccc(O)c(C)c1-c1nc(N[C@H]2C[C@H](O)C2)cc2c(N)ncnc12` (single isomer, unassigned) [Compound 15-B], the IC50 on WEE1 was above 1 µM; on PKMYT1, 0.01 to 0.1 µM.
For the compound `Cc1ccc(O)c(C)c1-c1nc(N(C)[C@H]2[C@@H]3COC[C@@H]32)cc2c(N)ncnc12` [Compound 61-B, 3-((S)-6-(((1R,5S,6r)-3-oxabicyclo[3.1.0]hexan-6-yl)(methyl)amino)-4-aminopyrido[3,4-d]pyrimidin-8-yl)-2,4-dimethylphenol], the half-inhibitory concentration (IC50) is above 1 µM at WEE1 and below 0.01 µM on PKMYT1.
Taken in the same sequence, the figures for `Cc1ccc(O)c(C)c1-c1nc(N(C)CCO)cc2c(N)ncnc12` (racemic) [Compound 47-A, 3-(4-amino-6-((2-hydroxyethyl)(methyl)amino)pyrido[3,4-d]pyrimidin-8-yl)-2,4-dimethylphenol] were above 1 µM and 0.01 to 0.1 µM.
Taken in the same sequence, the figures for `Cc1ccc(O)c(C)c1-c1nc(N(C)C2CC2)cc2c(N)ncnc12` (single isomer, unassigned) [Compound 21-B] were 0.1 to 1 µM and below 0.01 µM.
`Cc1ccc(O)c(C)c1-c1nc(N(C)CC(F)F)cc2c(N)ncnc12` (single isomer, unassigned) [Compound 28-B]: the figures for the IC50 on WEE1 and on PKMYT1 were above 1 µM and below 0.01 µM, respectively.
Taken in the same sequence, the figures for `Cc1cc2c(N)ncnc2c(-c2c(C)ccc(O)c2C)c1C` (single isomer, unassigned) [Compound 52-B] were above 1 µM and 0.01 to 0.1 µM.
Taken in the same sequence, the figures for `COCCN(C)c1cc2c(N)ncnc2c(-c2c(C)ccc(O)c2C)n1` (single isomer, unassigned) [Compound 9-B] were above 1 µM and 0.01 to 0.1 µM.

One may read the IC50 as the concentration that gives 50% inhibition. Lower therefore signals greater potency.
